Where no end group is shown, it is not given here.
Key:
[1] = system: dsRNA; test: SYBR-GOLD Dye Binding Assay (peptide binding to RNAi-inducing agent); conditions: FIG. 6; dsRNA 10 μg/ml, 10 mM hepes/5% dextrose pH 7.4
Protocol: The relative strength of the binding of a cationic peptide to an RNAi-inducing agent was measured with a dye binding assay.
The RNAi-inducing agent was prepared at 7.8 μl in 10 ml to make a 20 μg/ml stock, then 75 μl/well. A SYBR gold dilution was prepared at 3.75 μl in 15 ml for 1:4000 dilution for a 2.5× stock.
Peptides were dissolved in Hepes buffer with 5% dextrose and diluted. Peptides were further diluted so that 75 μl could be added to each well resulting in the desired N:P (ranging from 0-4). Peptides were assumed to have a purity of 50%, but actual peptide amount was unknown.
A SYBR-GOLD Dye Binding Assay was performed. A 96-well plate assay with sample volume of 150 μl per well. Final dsRNA concentration was 10 μg/ml in 10 mM hepes/5% dextrose at pH 7.4. Peptides were diluted into different working solutions such that equal volumes were added to reach different N/P ratios. For the addition procedure, dsRNA was first added (75 μl of 20 μg/ml), followed by […] of 2.5×SYBR Gold. Peptide ([…]) was then added to compete off the SYBR dye. Total volume was […]. Fluorescence was corrected from background of dye alone in buffer. SYBR-Gold ex/em was 495 nm/537 nm, read on Molecular Devices plate reader.

[2] = system: Cyclophilin B (PPIB); test: In vitro assay for PPIB gene expression knockdown in A549 cells; assay type: cell-based, human; conditions: for Knockdown (%) (vs dsRNA control): A549 cells, dsRNA DC4377 100 nM; for Knockdown (%) vs control / Knockdown (%) vs untransf: dsRNA DX4221 100 nM
Protocol: Cyclophilin B (PPIB) gene knockdown measurements can be used as a primary activity-based in vitro assay for interfering RNA delivery formulations. Typically, the measurements were made as described below, with minor variations.
Cyclophilin B (PPIB) gene expression knockdown was measured in A549 human alveolar basal epithelial cells. For PPIB gene knockdown measurements, A549 cells were transfected with an interfering RNA formulation, total RNA prepared 24 hours after transfection, and PPIB mRNA assayed by RT-PCR. QRT-PCR of 36B4 (acidic ribosomal phosphoprotein PO) mRNA expression was performed for normalization.
A549 cells were seeded at 7,500 cells/well (96-well) and incubated overnight in medium. Confluency was about 50% at the time of transfection. Transfection complex was prepared by adding an interfering RNA to medium (OptiMEM™) and vortexing, separately adding a delivery formulation to medium (OptiMEM™) and vortexing, and finally mixing the interfering RNA in medium with the delivery formulation in medium and incubating 20 minutes at room temperature to make the transfection complex. The medium for incubated cells was replaced with fresh OptiMEM™ and transfection complex was added to each well. Cells were incubated for 5 hrs at 37° C. and 5% CO2, then complete medium was added (to a final fetal bovine serum concentration 10%) and incubation continued until 24 hours post-transfection.
For PPIB gene knockdown cells were lysed and RNA prepared (Invisorb RNA Cell HTS 96-Kit/C, Invitek, Berlin, or RNeasy 96 Kit, Qiagen). Quantitative RT-PCR was performed using One-Step qRT-PCR kit (Invitrogen) on a DNA Engine Opticon2 thermal cycler (BioRad).
Primers used for PPIB were: […]

[3] = endosomolytic agent PN3033, binary N/P 5, final N/P 2.5
[4] = endosomolytic agent none, binary N/P 5
[5] = endosomolytic agent PN3033, binary N/P 4, final N/P 2.5
[6] = endosomolytic agent PN3033, binary N/P 4, final N/P 3.5
[7] = endosomolytic agent PN3033, binary N/P 5, final N/P 3.5
[8] = endosomolytic agent PN3033, binary N/P 5, final N/P 4.5

Row | binding to dsRNA (ability to displace SYBR-Gold dye) [1] | Sequence | Knockdown (%) (vs dsRNA control) [2, 3] | Knockdown (%) (vs dsRNA control) ([2]; endosomolytic agent PN3033, binary N/P 10, final N/P 5) | Knockdown (%) (vs dsRNA control) [2, 4] | Knockdown (%) vs control [2, 5] [%] | Knockdown (%) vs untransf [2, 5] [%] | Knockdown (%) vs control [2, 6] [%] | Knockdown (%) vs untransf [2, 6] [%] | Knockdown (%) vs control [2, 3] [%] | Knockdown (%) vs untransf [2, 3] [%] | Knockdown (%) vs control [2, 7] [%] | Knockdown (%) vs untransf [2, 7] [%] | Knockdown (%) vs control [2, 8] [%] | Knockdown (%) vs untransf [2, 8] [%] | Knockdown (%) vs control [2, 4] [%] | Knockdown (%) vs untransf [2, 4] [%]
1 | strongest binding | RRRRRCCRRRRR (cysteine pairing not given here; also: dimer) [PN3499, dimer peptide containing a total of 10 arginines] | – | – | – | – | – | – | – | – | – | – | – | – | – | – | –
2 | – | WWHHKKRRCCRRKKHHWW [PN4110, triggered release peptide] | 65 | 63 | 0 | 50 | 55 | 41 | 36 | 72 | 70 | 74 | 72 | 36 | 40 | 14 | 11

— US20100112042A1, “Processes and Compositions for Liposomal and Efficient Delivery of Gene Silencing Therapeutics” (MDRNA, INC., priority 2008, published 2010)
